Measured values as given in ChEMBL document CHEMBL1138844, “Synthesis and biological evaluation of 1-aryl-4,5-dihydro-1H-pyrazolo[3,4-d]pyrimidin-4-one inhibitors of cyclin-dependent kinases” (J Med Chem, 2004).
pIC50: −log10 of the molar value.

Assays:
[1] = target: Cyclin-dependent kinase 2/cyclin E (Homo sapiens, UniProt P24941)
Description: Inhibition of Cyclin-dependent kinase 2-cyclin E

[2] = target: Cyclin-dependent kinase 4/cyclin D1 (Homo sapiens, UniProt P11802); assay: Inhibition of Cyclin-dependent kinase 4-cyclin D1; format: protein-complex assay
Cyclin-dependent kinase 4/cyclin D1, sequence (P11802 whole entry): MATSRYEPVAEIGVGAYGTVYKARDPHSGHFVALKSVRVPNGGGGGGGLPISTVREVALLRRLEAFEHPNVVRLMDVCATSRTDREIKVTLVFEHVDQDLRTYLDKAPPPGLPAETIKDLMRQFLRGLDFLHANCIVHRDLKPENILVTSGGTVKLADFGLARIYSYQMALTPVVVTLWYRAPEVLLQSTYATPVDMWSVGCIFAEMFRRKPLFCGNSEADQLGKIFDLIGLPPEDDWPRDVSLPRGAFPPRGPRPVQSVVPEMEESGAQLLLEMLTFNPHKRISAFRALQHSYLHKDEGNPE
Cyclin-dependent kinase 4/cyclin D1, sequence (P24385 whole entry, further chain): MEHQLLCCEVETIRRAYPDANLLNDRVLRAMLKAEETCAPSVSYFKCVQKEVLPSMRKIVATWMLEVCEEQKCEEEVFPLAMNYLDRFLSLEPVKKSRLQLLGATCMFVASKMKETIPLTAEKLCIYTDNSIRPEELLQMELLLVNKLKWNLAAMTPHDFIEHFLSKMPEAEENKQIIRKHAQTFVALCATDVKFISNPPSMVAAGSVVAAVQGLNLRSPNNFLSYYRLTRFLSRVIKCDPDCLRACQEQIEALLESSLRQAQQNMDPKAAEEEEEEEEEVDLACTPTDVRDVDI

[3] = target: Cyclin-dependent kinase 1/cyclin B (Homo sapiens, UniProt P06493); assay: Inhibition of Cyclin-dependent kinase 1-cyclin B; format: protein-complex assay
HCT-116 = assay: Inhibition of human colon carcinoma cell (HCT116) proliferation; format: functional, cell-based

| Structure (SMILES) | pIC50 [1] | pIC50 [2] | pIC50 [3] | pIC50 (HCT-116) |
| --- | --- | --- | --- | --- |
| CSc1nn(-c2c(Cl)cc(Cl)cc2Cl)c2nc(Cc3ccccc3)[nH]c(=O)c12 | 6.36 | 4.96 |  |  |
| CSc1nn(-c2c(Cl)cc(Cl)cc2Cl)c2nc(C(C)C)[nH]c(=O)c12 |  | 5.00 |  |  |
| CCc1nn(-c2c(Cl)cc(Cl)cc2Cl)c2nc(Cc3ccc(OC)c(C)c3)[nH]c(=O)c12 | 7.22 | < 5.68 | 6.06 | 5.68 |
| CSc1nn(-c2ccc(Cl)cc2Cl)c2nc(C)[nH]c(=O)c12 |  | 4.43 |  |  |
| CCc1nn(-c2c(Cl)cc(Cl)cc2Cl)c2nc(Cc3ccc(OC)cc3)[nH]c(=O)c12 | 8.00 | 5.66 | 6.82 | 6.22 |
| CCCc1nn(-c2c(Cl)cc(Cl)cc2Cl)c2nc(C)[nH]c(=O)c12 |  | 5.24 |  |  |
| CSc1nn(-c2ccccc2)c2nc(C)[nH]c(=O)c12 |  | < 3.74 |  |  |
| CSc1nn(-c2cccc(Cl)c2Cl)c2nc(C)[nH]c(=O)c12 |  | 4.30 |  |  |
| CCc1nn(-c2c(Cl)cc(Cl)cc2Cl)c2nc(-c3ccc(OC)c(OC)c3)[nH]c(=O)c12 | 6.24 | < 4.68 |  |  |
| CCc1nn(-c2c(Cl)cc(Cl)cc2Cl)c2nc(Cc3ccccc3OC)[nH]c(=O)c12 | 7.00 | < 4.66 |  | 5.47 |
| CCc1nn(-c2c(Cl)cc(Cl)cc2Cl)c2nc(C)[nH]c(=O)c12 | 6.85 | 5.96 |  |  |
| Cc1nc2c(c(CCO)nn2-c2c(Cl)cc(Cl)cc2Cl)c(=O)[nH]1 |  | < 3.85 |  |  |
| CCc1nn(-c2c(Cl)cc(Cl)cc2Cl)c2nc(C)n(C)c(=O)c12 | < 4.57 | < 4.57 |  |  |
| CCc1nc2c(c(CC)nn2-c2c(Cl)cc(Cl)cc2Cl)c(=O)[nH]1 | 7.05 | 6.03 |  |  |
| CCc1nn(-c2c(Cl)cc(Cl)cc2Cl)c2nc(Cc3ccc(C)c(OC)c3)[nH]c(=O)c12 | 6.96 | 5.68 |  | 5.02 |
| CSc1nn(-c2c(Cl)cccc2Cl)c2nc(C)[nH]c(=O)c12 |  | 5.28 |  |  |
| CSc1nn(-c2cc(C)ccc2C)c2nc(C)[nH]c(=O)c12 |  | 4.60 |  |  |
| CSc1nn(-c2c(Cl)cc(Cl)cc2Cl)c2nc(CN(C)C(=O)OC(C)(C)C)[nH]c(=O)c12 |  | < 4.30 |  |  |
| CSc1nn(-c2cccc(Cl)c2)c2nc(C)[nH]c(=O)c12 |  | < 3.80 |  |  |
| Cc1nc2c(c(C)nn2-c2c(Cl)cc(Cl)cc2Cl)c(=O)[nH]1 |  | 5.46 |  |  |
| CCc1nn(-c2c(Cl)cc(Cl)cc2Cl)c2nc(Cc3ccc(OC)c(OC)c3)[nH]c(=O)c12 | 6.96 | 5.35 | < 6.29 | 6.21 |
| CSc1nn(-c2c(Cl)cc(Cl)cc2Cl)c2nc(CCCO)[nH]c(=O)c12 | 6.12 | 4.89 |  |  |
| Cc1nc2c(cnn2-c2c(Cl)cc(Cl)cc2Cl)c(=O)[nH]1 |  | 4.92 |  |  |
| CSc1nn(-c2c(Cl)cc(Cl)cc2Cl)c2nc(C3CC3)[nH]c(=O)c12 | 6.40 | 5.37 |  |  |
| CSc1nn(-c2ccc(C)cc2C)c2nc(C)[nH]c(=O)c12 |  | 4.32 |  |  |

| Structure (SMILES) | pIC50 [1] | pIC50 [2] | pIC50 [3] | pIC50 (HCT-116) |
| --- | --- | --- | --- | --- |
| CSc1nn(-c2c(Cl)cc(Cl)cc2Cl)c2nc(Cc3cccs3)[nH]c(=O)c12 |  | 4.70 |  |  |
| CSc1nn(-c2c(Cl)cc(Cl)cc2Cl)c2nc(C(F)(F)F)[nH]c(=O)c12 |  | < 3.94 |  |  |
| COC(=O)c1nc2c(c(SC)nn2-c2c(Cl)cc(Cl)cc2Cl)c(=O)[nH]1 |  | 3.62 |  |  |
| CCOC(=O)Cc1cccc(Cc2nc3c(c(CC)nn3-c3c(Cl)cc(Cl)cc3Cl)c(=O)[nH]2)c1 | 6.82 | < 5.72 |  |  |
| CCCc1nc2c(c(SC)nn2-c2c(Cl)cc(Cl)cc2Cl)c(=O)[nH]1 |  | 5.04 |  |  |
| CSc1nn(C(C)(C)C)c2nc(C)[nH]c(=O)c12 |  | < 4.00 |  |  |
| C=Cc1nc2c(c(CC)nn2-c2c(Cl)cc(Cl)cc2Cl)c(=O)[nH]1 | 6.51 | 5.54 |  |  |
| CSc1nn(-c2c(Cl)cc(Cl)cc2Cl)c2nc(CF)[nH]c(=O)c12 | 5.80 | 4.36 |  |  |
| CCc1nn(-c2c(Cl)cc(Cl)cc2Cl)c2nc(CCSC)[nH]c(=O)c12 |  | 5.19 |  |  |
| CSc1nn(-c2cc(C(F)(F)F)ccc2Cl)c2nc(C)[nH]c(=O)c12 |  | 4.82 |  |  |
| CCc1nn(-c2c(Cl)cc(Cl)cc2Cl)c2nc(Cc3ccc(Br)cc3)[nH]c(=O)c12 | 7.30 | < 5.92 |  | 5.64 |
| CSc1nn(-c2cc(Cl)ccc2Cl)c2nc(C)[nH]c(=O)c12 |  | 4.64 |  |  |
| CSc1nn(-c2c(Cl)cc(Cl)cc2Cl)c2nc(CCCCCO)[nH]c(=O)c12 | 6.38 | 5.00 |  |  |
| CSc1nn(-c2c(Cl)cc(Cl)cc2Cl)c2nc(-c3ccco3)[nH]c(=O)c12 |  | 4.44 |  |  |
| CCc1nn(-c2c(Cl)cc(Cl)cc2Cl)c2nc(Cc3ccc(O)c(O)c3)[nH]c(=O)c12 |  | 7.40 | 6.62 | 6.14 |
| Cc1nc2c(c(C(F)(F)F)nn2-c2c(Cl)cc(Cl)cc2Cl)c(=O)[nH]1 |  | 5.51 |  |  |
| CNCc1nc(O)c2c(SC)nn(-c3c(Cl)cc(Cl)cc3Cl)c2n1 |  | < 4.24 |  |  |
| CCc1nn(-c2c(Cl)cc(Cl)cc2Cl)c2nc(Cc3cccc(NS(C)(=O)=O)c3)[nH]c(=O)c12 | 6.59 | 6.80 |  | 6.33 |
| CCc1nn(-c2c(Cl)cc(Cl)cc2Cl)c2nc(C)nc(N)c12 |  | < 3.85 |  |  |
| CCCCn1nc(SC)c2c(=O)[nH]c(C)nc21 |  | < 3.70 |  |  |
| CSCc1nc2c(c(SC)nn2-c2c(Cl)cc(Cl)cc2Cl)c(=O)[nH]1 | 6.51 | 4.82 |  |  |
| CNCCc1nc2c(c(SC)nn2-c2c(Cl)cc(Cl)cc2Cl)c(=O)[nH]1 | 5.18 | 4.55 |  |  |
| CSc1nn(-c2ccc(C(C)C)cc2)c2nc(C)[nH]c(=O)c12 |  | < 3.80 |  |  |
| Cc1nc2c(c(Cc3ccccc3)nn2-c2c(Cl)cc(Cl)cc2Cl)c(=O)[nH]1 |  | < 4.32 |  |  |
| COc1ccccc1-n1nc(SC)c2c(=O)[nH]c(C)nc21 |  | < 4.08 |  |  |

| Structure (SMILES) | pIC50 [1] | pIC50 [2] | pIC50 [3] | pIC50 (HCT-116) |
| --- | --- | --- | --- | --- |
| CSc1nn(-c2ccc(Cl)cc2)c2nc(C)[nH]c(=O)c12 |  | < 3.80 |  |  |
| Cc1nc2c(c(CO)nn2-c2c(Cl)cc(Cl)cc2Cl)c(=O)[nH]1 |  | 5.15 |  |  |
| CCc1nn(-c2c(Cl)cc(Cl)cc2Cl)c2nc(CCc3ccccc3)[nH]c(=O)c12 | 5.74 | 5.15 |  |  |
| CSc1nn(-c2c(Cl)cc(Cl)cc2C(F)(F)F)c2nc(C)[nH]c(=O)c12 |  | 4.54 |  |  |
| CCc1nn(-c2c(Cl)cc(Cl)cc2Cl)c2nc(Cc3ccccn3)[nH]c(=O)c12 | 6.64 | 5.01 |  | 5.43 |
| CCc1nn(-c2c(Cl)cc(Cl)cc2Cl)c2c1S(=O)(=O)NC(C)=N2 | < 4.89 | < 4.29 |  |  |
| Cc1nc2c(c(C#N)nn2-c2c(Cl)cc(Cl)cc2Cl)c(=O)[nH]1 |  | < 4.55 |  |  |
| CSc1nn(CCO)c2nc(C)[nH]c(=O)c12 |  | < 3.68 |  |  |
| CSc1nn(-c2c(C)cc(Cl)cc2Cl)c2nc(C)[nH]c(=O)c12 |  | 4.96 |  |  |
| CCc1nn(-c2c(Cl)cc(Cl)cc2Cl)c2nc(CC(C)C)[nH]c(=O)c12 | 6.96 | < 5.20 |  |  |
| CCc1nn(-c2c(Cl)cc(Cl)cc2Cl)c2nc(CCc3cnc[nH]3)[nH]c(=O)c12 | 6.21 | 5.44 |  |  |
| CSc1nn(-c2ccc(Cl)cc2C)c2nc(C)[nH]c(=O)c12 |  | 4.13 |  |  |
| CCCCc1nn(-c2c(Cl)cc(Cl)cc2Cl)c2nc(C)[nH]c(=O)c12 |  | < 5.19 |  |  |
| CCc1nn(-c2c(Cl)cc(Cl)cc2Cl)c2nc(Cc3ccccc3O)[nH]c(=O)c12 | 6.92 | < 4.96 |  | 5.26 |
| CCc1nn(-c2c(Cl)cc(Cl)cc2Cl)c2nc(Cc3cc(O)cc(O)c3)[nH]c(=O)c12 | 7.70 | 7.30 |  | 6.52 |
| CSc1nn(-c2c(Cl)cc(Cl)cc2Cl)c2nc(CCN(C)C(=O)OC(C)(C)C)[nH]c(=O)c12 | 4.72 | < 4.32 |  |  |
| CSc1nn(-c2ccccc2Cl)c2nc(C)[nH]c(=O)c12 |  | 4.72 |  |  |
| CSc1nn(-c2ccccn2)c2nc(C)[nH]c(=O)c12 |  | < 3.74 |  |  |
| CSc1nn(Cc2ccccc2)c2nc(C)[nH]c(=O)c12 |  | < 3.82 |  |  |
| CSc1nn(-c2c(Cl)cc(Cl)cc2Cl)c2nc[nH]c(=O)c12 | 5.57 | 4.02 |  |  |
| CSc1nn(-c2c(Cl)cc(Cl)cc2Cl)c2nc(C(C)O)[nH]c(=O)c12 (stereo not given) |  | 4.57 |  |  |
| CCc1nn(-c2c(Cl)cc(Cl)cc2Cl)c2nc(CCCCO)[nH]c(=O)c12 | 6.60 | 5.62 |  |  |
| CSc1nn(-c2c(Cl)cc(C(F)(F)F)cc2Cl)c2nc(C)[nH]c(=O)c12 |  | 5.10 |  |  |
| CSc1nn(-c2c(C)cc(C)cc2C)c2nc(C)[nH]c(=O)c12 |  | 4.43 |  |  |
| Cc1nc2c(c(-c3ccccc3)nn2-c2c(Cl)cc(Cl)cc2Cl)c(=O)[nH]1 |  | < 3.92 |  |  |
